Reference: patent US10407467B2, “Polymyxin derivatives and their use in combination therapy together with different antibiotics” (priority 2013, dated 2019)

Tests used:
Assay in all cases: MIC, sole activity (no second agent)
Format in all cases: cell-based
Settings in all cases: Table 6A; no second agent; different supplier of Cation-adjusted MHB
[1] = system: Acinetobacter baumannii
Experimental: (§1) To evaluate the potency and spectrum of the compounds both alone and in combination with another agent, susceptibility testing was performed against up to four strains of each of the four Gram negative pathogens, Escherichia coli, Pseudomonas aeruginosa, Klebsiella pneumoniae and Acinetobacter baumannii.
(§2) The inoculum was prepared by making a direct suspension of isolated colonies (selected from an 18-24 hour Mueller-Hinton agar plate) adjusted to the 0.5 McFarland standard.
(§3) The assays were performed in duplicate.
(§4) In cases where the duplicate values varied by less than 2-fold, the lower of the two values is reported. If a variation of greater than 2-fold was observed, the assay was considered non-valid. Several of the compounds were subjected to multiple tests, and where this is the case, the MIC reflects the modal value obtained.
(§5) MICs were determined as described herein, except that a different supplier of Cation-adjusted MHB was used. […] Values are reported relative to Polymyxin B.

[2] = system: Escherichia coli
Experimental: as §1, §2, §3, §4, §5

[3] = system: Klebsiella pneumoniae
Experimental: as §1, §2, §3, §4, §5

[4] = system: Pseudomonas aeruginosa
Experimental: as §1, §2, §3, §4, §5

Row | Substance | MIC A. baumannii ATCC BAA-747 [1] [micrograms/mL] | MIC A. baumannii NCTC 13424 [1] [micrograms/mL] | MIC E. coli ATCC25922 [2] [micrograms/mL] | MIC E. coli NCTC 13441 [2] [micrograms/mL] | MIC K. pneumoniae ATCC 4352 [3] [micrograms/mL] | MIC K. pneumoniae ATCC BAA-2146 [3] [micrograms/mL] | MIC P. aeruginosa ATCC 27853 [4] [micrograms/mL] | MIC P. aeruginosa CCUG 59347 [4] [micrograms/mL]
1 | (R)-4-isobutylpiperazine-2- carbonyl polymyxin B nonapeptide [Example A46] | 8 | 2 | 2 | 2 | 2 | 2 | 1 | 2
2 | (R)-Piperidine-3-carbonyl polymyxin B nonapeptide [Example A24] | >8 | >8 | >8 | >8 | 8 | >8 | 1 | 2
3 | (S)-1-(2-methylpropyl)- piperidine-3-carbonyl polymyxin B nonapeptide [Example A48] | 4 | 2 | 1 | 1 | 0.5 | 2 | 1 | 4
4 | (S)-1-(3-methylbutanoyl) piperazine-2-carbonyl polymyxin B nonapeptide [Example A47] | 8 | 4 | >8 | 8 | >8 | 8 | 2 | 8
5 | Cis-4-Octyl piperidine-2- carbonyl polymyxin B nonapeptide. Isomer 1 [Example A43] | >8 | >8 | 8 | >8 | >8 |  | 4 | 8
6 | Cis-4-Octyl piperidine-2- carbonyl polymyxin B nonapeptide. Isomer 2 [Example A44] | 2 | 4 | 2 | 2 | 2 |  | 1 | 2
7 | D-Leu-polymyxin B nonapeptide [Example A42] | 4 | 4 | 2 | 1 | 2 | 1 | 0.5 | 2
8 | D-Phe polymyxin B nonapeptide [Example A35] | 8 | 8 | 1 | 2 | 2 | 2 | 0.25 | 1
9 | D-Pro polymyxin B nonapeptide [Example A36] | 8 | 8 | 2 | 2 | 1 | 8 | 1 | 4
